Measured values: US10656159B2, “Immunoassays of s-adenosylmethionine and methylation index in personalized medicine and health evaluation” (HUNAN SKYWORLD BIOTECHNOLOGIES CO, priority 2013, dated 2020)
Several values for one entry are separate records, joined by “and”; a condition that tells them apart may be missing. Identical values can stand only once. Entries after “also recorded” stand apart in the source; their conditions may differ. Blank lines part the entries; values can stand above or below the molecule they belong to.

Legend:
[1] = cELISA sensitivity / SAH standard curve; type: binding; settings: HRP-anti-301-1 1:1000, 0.5 μg/ml BSA-SAH coat
Method: The cELISA result from Table 1C with obtained from 0.5 μg/ml BSA-SAH coated micro-titer plate, HRP-anti-301-1 at dilution of 1:1000 in PBS incubation system. Different amounts of coating antigen, antibody, and incubating buffer will give slightly different minimum detection limits.

[2] = Thermal stability of SAM and SAH in human plasma; type: in vitro ADME
Method: The stability of SAM and SAH at different temperatures, as well as their stability in acid and base environment were tested. The 310 human plasma samples were placed at room temperature for 2 hours. […] The increased SAH was due to de-methylation of SAM in ex vivi situation within a few hours of blood withdrawal.
Results from stability study for different temperature conditions, i.e. 4° C., 15° C. (room temperature), 37° C. and 56° C., were obtained mainly on SAM and partially on SAH measurements. Plasma from 4 individual samples S3, S4, S5 and S6 were used in 4° C., 15° C. and 37° C. experiments.
However, when samples were placed at room temperature (˜15° C.) and 37° C., SAM was degraded rapidly especially at 37° C., SAM degradation rate reached a maximum at about 4-6 hours under 37° C. […] At about 6 hours after blood withdrawal, SAM level was reduced whereas SAH level was increased. The values of SAH were recorded as >1000 nM from 6 hours to 3 days, thus SAH leaks were not shown. The level of SAH was maintained at a high level for about 3 days before it started to drop. SAM level went down continuously. […] It cannot be ruled out that inhibition of SAH converting to other metabolites or degradation also existed causing it to stay high for quite some time. It meant to show the dynamics of SAM and SAH for this particular sample. Difference among samples exists. Samples S1, S2, S3 and S4 were used in 56° C. experiments. The results are shown in FIG. 19F-G. SAM was quickly undetectable in 10 minutes at 56° C., whereas SAH was dramatically degraded in 10 minutes and fully undetectable after about 4 hours at 56° C.

[3] = Dialysis of plasma: free and non-free SAM and SAH; type: in vitro ADME, human; settings: for Amount left after dialysis: 37° C., 24 hour; for Non-free form left within the dialysis bag: dialysis 15° C., 24 hours, 20 mM phosphate buffer pH 7.4, bag MW 14,000
Method: To distinguish whether there are conjugated form of SAM and SAH in human plasma, we used dialysis bags to dialyze plasma samples at different temperature for 24 hours with at least two changes of dialyzing buffer (20 mM PB, pH7.4), then measured the SAM and SAH levels before and after dialysis.
Notice that for those SAH data which were greater than or equal to 1000 nM, only 1000 nM was used in the figure. Therefore, it is obvious that the immunoassays used in this invention can bind free SAM and SAH from human plasma. The differences of SAM or SAH as measured before and after dialysis (20 mM phosphate buffer, pH 7.4) for each sample represented the free SAM or SAH molecules that escaped from the dialysis bag (MW 14,000, Biosharp, USA) into the dialysis buffer, therefore they could not be detected from the sample collected from dialysis bag.
FIGS. 20A and 20B also show the percentages of SAM and SAH that were left within the dialysis bag after dialysis at 15° C. for 24 hours, which represented the amount of non-free SAM and SAH respectively.

[4] = Stability of SAM and SAH in plasma at different pH; type: in vitro ADME, human; settings: for Level at 1 day time point: maximum detection limit 1000 nM; for Effect of pH on degradation: plasma, 15° C., pH 5.5-6.0, 7.0-7.5, 8.0-8.5
Method: The stability of SAM and SAH was also tested in acidic and basic conditions at 15° C. Normal mixed plasma sample (S8) (with pH 7.84), samples S1, S2, S3, S4 (pH 7.0-7.5) were used in the experiments. 10 μl 5M HCl was added to 1260 μl plasma to adjust its pH to 5.5-6.0. In another set of samples, 2 μl 5M NaOH was added to 1260 μl plasma to adjust its pH to 8.0-8.5. Before using these acidic or basic samples to conduct the immunoassay, 1.1 μl 5M NaOH was added to 180 μl acidic samples; 0.376 μl 5M HCl was added to 180 μl basic samples to make them neutral. Meanwhile, standards were also added the same amount of acid and base as the samples.
This observation was consistent with a prior publication regarding pH stability of SAM (Parks, L W, et al. jbc.org Aug. 23, 1957). […] However basic environment has a stronger impact than acidic environment. The SAH data at 1 day time point, the SAH levels for pH 7.0-7.5 and pH 5.5-6.0 curves were measured to be greater than 1000 nM. The experiment has maximum detection limit as 1000 nM, only 1000 nM points were plotted, therefore the spikes at 1 day time point could not been see for pH 7.0-7.5 and pH 5.5-6.0 curves. This figure is meant to show the dynamics of SAH level for this particular sample. Difference among samples exists.

[5] = oral, alcoholic liver cirrhosis, versus placebo; cited from earlier work
[6] = system: nucleolar 2-O-methyltransferase; settings: cited from earlier work
[7] = 310 human plasma samples, room temperature 2 hours versus 4° C.

Increase of level [2, 7]: 21.05%±83.31% | Time level was maintained at a high level before it started to drop ([2]; plasma, 15° C.): about 3 days | Time to fully undetectable ([2]; plasma, 56° C.): about 4 hours | Amount left after dialysis [3]: trivial or no SAM and SAH left | Non-free form left within the dialysis bag [3]: around 30% | Level at 1 day time point ([4]; plasma pH 5.5-6.0, 15° C.): greater than 1000 nM | Level at 1 day time point ([4]; plasma pH 7.0-7.5, 15° C.): greater than 1000 nM
SMILES: Nc1ncnc2c1ncn2[C@@H]1O[C@H](CSCC[C@H](N)C(=O)O)[C@@H](O)[C@H]1O [SAH, S-Adenosylhomocysteine]
OD450 ([1]; SAH 3.906 nM): 0.7722 and 0.9144 and 0.7786 | OD450 Mean ([1]; SAH 3.906 nM): 0.8217 | OD450 ([1]; SAH 7.8125 nM): 0.7602 and 0.8113 and 0.7708 | OD450 Mean ([1]; SAH 7.8125 nM): 0.7808 | OD450 ([1]; SAH 15.625 nM): 0.8045 and 0.8273 and 0.7975 | OD450 Mean ([1]; SAH 15.625 nM): 0.8098 | OD450 ([1]; SAH 31.25 nM): 0.7285 and 0.8199 and 0.7545 | OD450 Mean ([1]; SAH 31.25 nM): 0.7676 | OD450 ([1]; SAH 62.5 nM): 0.6055 and 0.7115 and 0.6444 | OD450 Mean ([1]; SAH 62.5 nM): 0.6538 | OD450 ([1]; SAH 125 nM): 0.5421 and 0.6358 and 0.5372 | OD450 Mean ([1]; SAH 125 nM): 0.5717 | OD450 ([1]; SAH 250 nM): 0.4116 and 0.4426 and 0.442 | OD450 Mean ([1]; SAH 250 nM): 0.4321 | Effect of pH on degradation [4]: both acidic and basic environment speeded up plasma SAH degradation; also recorded: Both acid and base increased the speed SAH was degraded

SMILES: C[S+](CC[C@H](N)C(=O)O)C[C@H]1O[C@@H](n2cnc3c(N)ncnc32)[C@H](O)[C@@H]1O (some centres unmarked) [SAM, S-Adenosylmethionine]
Reduction of level [2, 7]: 33.81%±19.43% | Stability ([2]; plasma, 37° C.): reduced quickly in all samples | Time at which degradation rate reached a maximum ([2]; plasma, 37° C.): 4 to 6 h | Stability ([2]; plasma, 56° C.): reduced even faster than at 37 °C | Time to undetectable ([2]; plasma, 56° C.): 10 min | Amount left after dialysis [3]: trivial or no SAM and SAH left | Non-free form left within the dialysis bag [3]: 11-25% | Effect of pH on degradation [4]: degradation rate increased with pH values; also recorded: Low pH (acidic environment) helped prevent SAM from quick degradation | Overall mortality and/or progression to liver transplant [5]: 12%

SMILES: C[S+](CC[C@H](N)C(=O)[O-])C[C@H]1O[C@@H](n2cnc3c(N)ncnc32)[C@H](O)[C@@H]1O (stereo partly drawn) [(S, S)-SAM-e]
Binding tightness relative to (R, S)-SAM-e [6]: 10 fold
